Like-named read-outs stand apart in the source and are kept apart here.

The subject of data set [1] is N87 xenograft model of human stomach cancer. The conditions noted are these: oral 2×100 mg/kg/day, 5 days/week.
The test system of data set [2] is MCF-7 breast cancer cells. The data set can be described thus: MTS cell growth inhibition assay. It is filed as cell-based, human. The conditions noted are these: MCF-7 cells.
Data set [3] has as its system Her-2 in MCF-7 cells. The data set can be described thus: HER2 inhibition assay (Her-2 degradation, MCF-7 cells, 24 incubation, flow cytometry). The conditions noted are these: Homo sapiens, MCF7, concentration necessary to degrade 50% of Her 2 expression. Type of data set: cell-based. On the procedure:
MCF-7 cells are seeded in 24 well plates at a density of approximately 30,000 cells/well and allowed to grow for 16 hours in DMEM supplemented with 10% FBS. Drug is then added at a concentration range of 100 uM to 0.01 uM. Cells are incubated for an additional […]. Drug treated cells and untreated control cells are trypsinized, and incubated at room temperature for 15 minutes with anti Her-2 neu Ab conjugated with phycoerythrin (Becton Dickinson, San Jose Calif.; Cat no. 340552) at a concentration of 0.25 ug/ml, or non-specific control IgG1 conjugated with phycoerythrin (Becton Dickinson, San Jose Calif.; Cat no. 340761). Samples were analyzed using a FACS Calibur flow cytometer (Becton Dickinson) equipped with Argon-ion laser that which emits 15 mW of 488 nm light for excitation of the phycoerythrin fluorochrome. 10,000 events were collected per sample. A fluorescence histogram was generated and the mean fluorescence intensity (mfi) of each sample was determined using Cellquest software. The background was defined as the mfi generated from cells incubated with control IgG, and was subtracted from each sample stained with the HER-2/neu Ab Percent degradation of Her-2 was calculated as follows: % Her-2 degradation=(mfi HER-2 sample)/(mfi HER-2 untreated cells)×100
The compounds in the table below were prepared as described above and evaluated for Her-2 degradation ability based on the above assay (example 314).
A general note: In flow cytometry, cells or beads pass a laser one at a time.

In data set [4] the test system is HER-2 receptor (Hsp90 client) in MCF-7 cells. The data set can be described thus: HER-2 degradation assay (MCF-7 cells, 16 h, phycoerythrin-labeled antibody and flow cytometry). The conditions noted are these: read-out: HER-2 IC50. Type of data set: cell-based, human.
Data set [5] concerns Purified native Hsp90 protein (mixture of alpha and beta) from HeLa cells. The data set can be described thus: Fluorescence-based competitive binding assay for biotinylated-geldanamycin to purified Hsp90. Set-up: species or system human. The conditions noted are these: HSP90 binding ability; competition with biotin-GM.
Data set [6] is described as follows: in vivo. The conditions noted are these: Balb/C, mouse, plasma.
Data set [7] can be described thus: Pharmacokinetics in Balb/C mice (IV 10 mg/kg, PO 100 mg/kg). The conditions noted are these: for IV Parameters T1/2 / IV Parameters VSS / IV Parameters Cl: IV 10 mg/kg; for IV Parameters T1/2 / IV Parameters VSS / PO Parameters T1/2 / PO Parameters Cmax / PO Parameters Tmax / PO Parameters AUC: H3PO4 salts; for PO Parameters T1/2 / PO Parameters Cmax / PO Parameters Tmax / PO Parameters AUC: PO 100 mg/kg; for PO Parameters Cmax: plasma; for IV Parameters Cl: H3PO4 salts in phosphatidylcholine/water dispersion; for PO Parameters AUC: over 4 h; for PO Parameters % F: oral bioavailability, PO 100 mg/kg vs IV 10 mg/kg.

Data set [8] is described as follows: Mouse pharmacokinetics after oral administration at 100 mg/kg.
Data set [9] can be described thus: Solubility in simulated gastric fluid, simulated intestinal fluid and serum. It is filed as physicochemical.
Where [10] appears, read: Homo sapiens, MCF7, 120 h, 5 days, SEM 9-21% of the mean.
The mark [11] stands for this setting: Homo sapiens, MCF7, MCF-7 cells, 16 h, average of at least three observations.
[12] abbreviates: Homo sapiens, MCF7, MCF-7 cells, 16 h, SEM 6-11% of the mean.

`COc1ccc(I)c(Sc2nc3c(N)ncnc3n2CCNCC(C)(C)C)c1.O=P(O)(O)O` [Compound 132.H3PO4, 9-[2-(2,2-Dimethyl-propylamino)-ethyl]-8-(2-iodo-5-methoxy-phenylsulfanyl)-9H-purin-6-ylamine, H3PO4 salt]: the tumor growth inhibition entry in data set [1] (N87) was “statistically significant (p=0.02) tumor growth inhibition”. In [1] (mice), the toxicity entry is listed as “no overt toxicity”.
In general, IC50 refers to the concentration that gives 50% inhibition. On to `C#CCCCn1c(Sc2cc(OC)ccc2I)nc2c(N)ncnc21` [Compound 309, 8-(2-iodo-5-methoxy-phenylsulfanyl)-9-pent-4-ynyl-9H-purin-6-ylamine], for which the IC50 in [2] (setting [10]) turned out to be 0.7 µM.
As to `COc1ccc(I)c(Sc2nc3c(N)ncnc3n2CCC=C(C)C)c1` [Compound 46, 8-(2-Iodo-5-methoxy-phenylsulfanyl)-9-(4-methyl-pent-3-enyl)-9H-purin-6-ylamine], the IC50 was 0.3 µM in data set [3], 0.37 µM in [4] (setting [11]) and 0.9 µM in data set [5].
Turning to `COc1ccc(OC)c(Sc2nc3c(N)ncnc3n2CCC=C(C)C)c1` [Compound 63, 8-(2,5-dimethoxy-phenylsulfanyl)-9-(4-methyl-pent-3-enyl)-9H-purin-6-ylamine], the IC50 in data set [3] was 0.7 µM; in data set [5] it was 1.3 µM.
On the same counts, the results for `C#CCCCn1c(Cc2cc(OC)ccc2I)nc2c(N)ncnc21` [Compound 26, 8-(2-Iodo-5-methoxy-benzyl)-9-pent-4-ynyl-9H-purin-6-ylamine] are 1.5 µM and 1.1 µM.
On the same counts, the results for `C#CCCCn1c(Cc2cc(OC)ccc2OC)nc2c(N)ncnc21` [Compound 8, 8-(2,5-Dimethoxy-benzyl)-9-pent-4-ynyl-9H-purin-6-ylamine] are 1.5 µM and 6 µM.
For the compound `C#CCCCn1c(Sc2cc(OC)ccc2OC)nc2c(N)ncnc21` [Compound 57, 8-(2,5-dimethoxy-phenylsulfanyl)-9-pent-4-ynyl-9H-purin-6-ylamine], the IC50 was found to be 1.4 µM in data set [3] and 4 µM in data set [5].
On the same counts, the results for `COc1ccc(OC)c(Cc2nc3c(N)nc(F)nc3n2CCC=C(C)C)c1` [Compound 3, 8-(2,5-Dimethoxy-benzyl)-2-fluoro-9-(4-methyl-pent-3-enyl)-9H-purin-6-ylamine] are 0.5 µM and 1.1 µM.
One may read the clearance as the rate of elimination divided by the concentration. Low values mean inefficient removal, high ones efficient removal. As usually defined, the AUC is concentration integrated over time. A low value points to less exposure. The Tmax is the time from dosing to the highest level. One may read the bioavailability as the share of a dose that reaches the circulation, judged against a reference dose that is usually intravenous. Read a low bioavailability as poor availability. Turning to `CCC(C)NCCCn1c(Sc2cc(OC)ccc2I)nc2c(N)ncnc21` (racemic) [Compound 109, 9-(3-sec-Butylamino-propyl)-8-(2-iodo-5-methoxy-phenylsulfanyl)-9H-purin-6-ylamine (racemate)], the IC50 in data set [4] (setting [12]) came to 0.21 µM. Also, in data set [6] (iv, 10 mg/kg), the clearance came to 33 mL/min/kg. In data set [6] (po, 100 mg/kg), the exposure (AUC) was 6330 ng·h/mL, the time of peak concentration (Tmax) turned out to be 30 min and the bioavailability worked out at 28%. Besides, the half-maximal inhibitory concentration (IC50) in [2] (setting [10]) was determined as 0.2 µM. In addition, in data set [7], the “IV Parameters T1/2” value turned out to be 78 min, the “IV Parameters VSS” value is 3.4 L/kg, the “PO Parameters T1/2” value is 42 min and the “PO Parameters Cmax” value turned out to be 4800 ng/mL.
Regarding `CCCCn1c(Cc2cc(OC)ccc2OC)nc2c(N)ncnc21` [Compound 1, 8-(2,5-dimethoxybenzyl)-N-9-butyladenine], the IC50 in [3] is 6 µM; in [4] (setting [11]), 12 µM; in data set [5], 10 µM.
As to `C#CCCCn1c(Cc2cc(OC)ccc2I)nc2c(N)nc(F)nc21` [Compound 29, 2-Fluoro-8-(2-iodo-5-methoxy-benzyl)-9-pent-4-ynyl-9H-purin-6-ylamine], the IC50 in [3] came to 0.8 µM; in data set [5], 0.9 µM.
As for `COc1ccc(I)c(Cc2nc3c(N)nc(F)nc3n2CCC=C(C)C)c1` [Compound 28, 2-Fluoro-8-(2-iodo-5-methoxy-benzyl)-9-(4-methyl-pent-3-enyl)-9H-purin-6-ylamine], the figures for the half-inhibitory concentration (IC50) in [3] and in [5] were 1 µM and 2.3 µM, respectively.
Broadly, the Cmax is the maximum level reached in the sampled fluid or tissue. For the compound `CCC(CC)NCCCn1c(Sc2cc(OC)ccc2I)nc2c(N)ncnc21` [Compound 108, 9-[3-(1-Ethyl-propylamino)-propyl]-8-(2-iodo-5-methoxy-phenylsulfanyl)-9H-purin-6-ylamine], the IC50 in data set [4] (setting [12]) was 0.21 µM. Besides, the 50% inhibitory concentration (IC50) in data set [4] (Homo sapiens, MCF7, MCF-7 cells) was found to be 0.21 µM. Besides, the Cmax in data set [6] (po, 100 mg/kg) was found to be 12 µM. In [2] (setting [10]), this compound yielded a concentration for half-maximal inhibition (IC50) of 0.2 µM. Further, the 50% inhibitory concentration (IC50) in data set [2] (Homo sapiens, MCF7) stood at 0.2 µM. Moreover, in data set [7], the “IV Parameters T1/2” value turned out to be 30 min, the “IV Parameters VSS” value is on record as 2.4 L/kg, the “IV Parameters Cl” value is listed as 69 mL/min/kg and the “PO Parameters T1/2” value came to 36 min. For the same compound, in data set [7], the “PO Parameters Tmax” value came out at 30 min, the “PO Parameters Cmax” value is 5800 ng/mL, the “PO Parameters AUC” value came out at 590 µg·min/mL and the “PO Parameters % F” value turned out to be 42%.
Regarding `COc1ccc(I)c(Sc2nc3c(N)ncnc3n2CCCNC(C)(C)C)c1` [Compound 95, 9-(3-tert-Butylamino-propyl)-8-(2-iodo-5-methoxy-phenylsulfanyl)-9H-purin-6-ylamine], the IC50 in data set [4] (setting [12]) came out at 0.14 µM. In data set [6] (oral, 100 mg/kg), this compound had a bioavailability of at least 50%. In data set [2] (setting [10]), the IC50 was determined as 0.2 µM. Moreover, in data set [7], the “IV Parameters T1/2” value came out at 96 min, the “IV Parameters VSS” value worked out at 24 L/kg, the “IV Parameters Cl” value is listed as 131 mL/min/kg and the “PO Parameters T1/2” value stood at 54 min. In [7], the “PO Parameters Tmax” value was determined as 30 min, the “PO Parameters Cmax” value amounted to 6700 ng/mL, the “PO Parameters AUC” value is 680 µg·min/mL and the “PO Parameters % F” value is given as 97%.
As to `C=CCNC1=C2C[C@@H](C)C[C@H](OC)[C@H](O)[C@@H](C)/C=C(\C)[C@H](OC(N)=O)[C@@H](OC)/C=C\C=C(/C)C(=O)NC(=CC1=O)C2=O` [Compound 17-AAG, 17-allylamino,17-desmethoxy-geldanamycin, reference compound], the IC50 was determined as 0.0129 ± 0.0003 µM in data set [4] and 0.032 ± 0.004 µM in data set [2] (5 days).
In the case of `C#CCCCn1c(Sc2cc(OC)ccc2I)nc2c(N)ncnc21` [Compound 47, 8-(2-Iodo-5-methoxy-phenylsulfanyl)-9-pent-4-ynyl-9H-purin-6-ylamine], the results for the IC50 in data set [3] and in [5] were 0.3 µM and 0.8 µM, respectively.
On to `CCCCn1c(Sc2cc(OC)ccc2I)nc2c(N)ncnc21` [Compound 44, 9-Butyl-8-(2-iodo-5-methoxy-phenylsulfanyl)-9H-purin-6-ylamine], for which the IC50 in data set [3] and in data set [5] was 1.5 µM throughout.
As to `COc1ccc(I)c(Cc2nc3c(N)ncnc3n2CCC=C(C)C)c1` [Compound 27, 8-(2-Iodo-5-methoxy-benzyl)-9-(4-methyl-pent-3-enyl)-9H-purin-6-yl amine], the values for the IC50 in [3] and in data set [5] were 0.8 µM and 0.9 µM, respectively.
With `CCOP(=O)(CCn1c(Sc2nc3cncc(Cl)c3s2)nc2c(N)ncnc21)OCC` [Compound 206, {2-[6-Amino-8-(7-chloro-thiazolo[4,5-c]pyridinl-2-ylsulfanyl)-purin-9-yl]-ethyl}-phosphonic acid diethyl ester], in [8] (PO 100 mg/kg), the “plasma concentrations (in words)” value is listed as “below the level of detection”. In addition, in data set [8] (in vivo, po, 100 mg/kg), the Cmax was below 500 ng/mL. Further, the “solubility compared with benzothioazol analog 204” value in data set [9] (simulated gastric fluid, simulated intestinal fluid, serum) is on record as “significantly more soluble in all three solutions”. The “Serum (PH 7.4)” value in data set [9] (solubility in serum, PH 7.4) was 14 µg/mL. Besides, in data set [9] (solubility in simulated gastric fluid, PH 2.0), the “Gastric (PH 2.0)” value is 124 µg/mL. Moreover, in [9] (solubility in simulated intestinal fluid, PH 6.5), the “Intestinal (PH 6.5)” value is 38.3 µg/mL.
As to `COc1ccc(OC)c(Cc2nc3c(N)nc(F)nc3n2CCCCCBr)c1` [Compound 5, 8-(2,5-Dimethoxy-benzyl)-2-fluoro-9-(5-bromo-pentyl)-9H-purin-6-ylamine], the half-maximal inhibitory concentration (IC50) in [3] turned out to be 1 µM; in data set [5] it was 2 µM.
In the same order, the values of `CCCCn1c(Sc2ccc(I)c(OC)c2)nc2c(N)ncnc21` [Compound 45, 9-Butyl-8-(4-iodo-3-methoxy-phenylsulfanyl)-9H-purin-6-ylamine] are 2 µM and 1.8 µM.

These data come from patent publication US20070129334A1, “Orally Active Purine-Based Inhibitors of Heat Shock Protein 90” (CONFORMA THERAPEUTICS CORPORATION, priority 2001, published 2007).
